# Strand notation (5' to 3'): a small letter for the sugar, then the base; units joined by * are phosphorothioate-linked, units joined directly phosphodiester-linked; [ ] holds rarer units or linkages, { } end groups; capitals alone tell only the bases. k = constrained ethyl (cEt); [5mC] = 5-methylcytosine; d = 2'-deoxy (DNA)
# Tested on: human SMAD7 mRNA
# Assay: Antisense inhibition of human SMAD7 mRNA expression in Hep3B cells by 3-10-3 cEt gapmers, 10,000 nM, electroporation (Example 2)
# Type: cell-based
# Settings: Hep3B cells, 10,000 nM antisense oligonucleotide, electroporation, approximately 24 hours, RT-PCR primer probe set RTS5062, relative to untreated control cells
# Summary of the method: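 Hep3B cells (20,000 per well) were electroporated with 10,000 nM 16-mer 3-10-3 cEt gapmer (phosphorothioate, 5-methylcytosine). After about 24 h, SMAD7 mRNA was quantified by qRT-PCR with primer probe set RTS5062, normalised to RIBOGREEN total RNA, and expressed as percent inhibition versus untreated cells.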
row,Substance,% Inhibition [%]
1,800089 (antisense kA*kG*kG*dA*dA*d[5mC]*d[5mC]*dT*dA*dT*d[5mC]*dT*dG*kG*kT*kA) [compound 800089],0
2,800090 (antisense k[5mC]*kA*k[5mC]*d[5mC]*dT*dA*dT*dG*d[5mC]*dG*dA*dT*dG*kG*kT*k[5mC]) [compound 800090],0
3,800091 (antisense kT*kG*kA*d[5mC]*dA*d[5mC]*dA*dG*d[5mC]*d[5mC]*dA*dG*dA*kG*k[5mC]*kT) [compound 800091],0
4,800092 (antisense kA*kT*k[5mC]*d[5mC]*dT*dG*dA*dT*dG*dA*dG*dA*dA*kA*kA*k[5mC]) [compound 800092],0
5,800093 (antisense kT*kT*kG*dA*dA*dG*dG*d[5mC]*d[5mC]*dA*dG*d[5mC]*dT*k[5mC]*k[5mC]*kT) [compound 800093],48
6,800094 (antisense kA*kT*kG*dG*dA*dA*d[5mC]*d[5mC]*dT*dT*dG*dA*dA*kG*kG*k[5mC]) [compound 800094],49
7,800095 (antisense kA*kG*kT*dT*dA*d[5mC]*dA*dG*dA*dT*d[5mC]*dT*dT*kT*k[5mC]*kA) [compound 800095],47
8,800096 (antisense kT*kG*kG*dA*dG*dT*dT*dA*d[5mC]*dA*dG*dA*dT*k[5mC]*kT*kT) [compound 800096],32
9,800097 (antisense kG*k[5mC]*k[5mC]*dT*d[5mC]*dA*dA*dA*dA*dA*dG*d[5mC]*d[5mC]*kT*k[5mC]*kA) [compound 800097],1
10,800098 (antisense kT*kT*kT*dT*dA*dG*dG*dG*d[5mC]*d[5mC]*dT*d[5mC]*dA*kA*kA*kA) [compound 800098],1

# Same assay, conditions: Hep3B cells, electroporation with 10,000 nM antisense oligonucleotide, approximately 24 hours, SMAD7 mRNA by RT-PCR (RTS5062), relative to untreated control cells
row,Substance,% Inhibition [%]
1,800080 (antisense kG*kG*kG*d[5mC]*dT*dA*d[5mC]*d[5mC]*dT*dT*dA*dA*d[5mC]*kA*kA*kA) [compound 800080],14
2,800081 (antisense k[5mC]*kG*kG*dT*dA*dT*dT*dA*dA*d[5mC]*d[5mC]*d[5mC]*dG*kG*kG*k[5mC]) [compound 800081],0
3,800082 (antisense kG*k[5mC]*kA*dG*dA*d[5mC]*d[5mC]*dG*dG*dT*dA*dT*dT*kA*kA*k[5mC]) [compound 800082],12
4,800083 (antisense kT*kG*k[5mC]*dA*dG*dA*d[5mC]*d[5mC]*dG*dG*dT*dA*dT*kT*kA*kA) [compound 800083],11
5,800084 (antisense kG*k[5mC]*k[5mC]*dA*dA*dA*dT*d[5mC]*dA*d[5mC]*dA*dA*d[5mC]*kA*kT*kG) [compound 800084],57
6,800085 (antisense kA*kG*k[5mC]*dA*dG*d[5mC]*d[5mC]*d[5mC]*dT*dG*dT*dA*d[5mC]*kA*k[5mC]*kA) [compound 800085],37
7,800086 (antisense kA*kG*k[5mC]*dA*dG*d[5mC]*dA*dG*d[5mC]*d[5mC]*d[5mC]*dT*dG*kT*kA*k[5mC]) [compound 800086],40
8,800087 (antisense kT*kA*kA*dT*dA*dG*dG*dA*dA*dA*dA*d[5mC]*dA*kG*kT*k[5mC]) [compound 800087],0
9,800088 (antisense kA*kA*kT*dG*dA*dG*dG*dG*dT*dG*dG*d[5mC]*dT*kT*kG*kG) [compound 800088],54
10,800099 (antisense kT*kG*k[5mC]*dA*dA*dA*dG*dG*dG*dA*d[5mC]*d[5mC]*d[5mC]*kT*kT*kA) [compound 800099],6
11,800100 (antisense kT*kG*k[5mC]*dA*dG*dA*dG*d[5mC]*dA*d[5mC]*dA*dG*dA*kT*kG*k[5mC]) [compound 800100],16
12,800101 (antisense kA*kA*k[5mC]*dA*dA*dA*dG*d[5mC]*d[5mC]*dT*d[5mC]*dT*dT*k[5mC]*kT*k[5mC]) [compound 800101],0
13,800102 (antisense kA*k[5mC]*kG*dA*dG*dA*d[5mC]*dA*dG*dA*dA*dA*dG*kA*kA*kG) [compound 800102],21
14,800103 (antisense kG*kG*kA*d[5mC]*dG*dA*dG*dA*d[5mC]*dA*dG*dA*dA*kA*kG*kA) [compound 800103],4
15,800104 (antisense kA*kG*kG*dA*d[5mC]*dG*dA*dG*dA*d[5mC]*dA*dG*dA*kA*kA*kG) [compound 800104],17
16,800105 (antisense kT*k[5mC]*k[5mC]*dT*dA*dG*dA*dA*dT*dG*dA*dA*dG*kA*k[5mC]*kA) [compound 800105],17
17,800106 (antisense k[5mC]*kA*kG*dA*dG*dA*dG*dG*dG*dT*dT*dA*dG*kT*kG*kG) [compound 800106],12
18,800107 (antisense kA*kA*kT*d[5mC]*dT*dA*dG*dA*dA*dA*dA*d[5mC]*dA*k[5mC]*kA*kT) [compound 800107],0
19,800108 (antisense kG*kG*kA*dA*dT*d[5mC]*dT*dA*dG*dA*dA*dA*dA*k[5mC]*kA*k[5mC]) [compound 800108],12

# Same assay, conditions: SMAD7 mRNA, Hep3B cells, 10,000 nM antisense oligonucleotide, electroporation, approximately 24 hours, primer probe set RTS5062, relative to untreated control cells
row,Substance,% Inhibition [%]
1,800768 (antisense kG*k[5mC]*kG*d[5mC]*dT*d[5mC]*d[5mC]*dG*dT*dG*dG*d[5mC]*dA*kT*kG*k[5mC]) [compound 800768],18
2,800769 (antisense kG*k[5mC]*kA*dG*dG*d[5mC]*dG*dA*d[5mC]*dA*dG*d[5mC]*dA*kG*k[5mC]*kA) [compound 800769],49
3,800771 (antisense k[5mC]*k[5mC]*k[5mC]*dG*d[5mC]*dA*dG*d[5mC]*dT*d[5mC]*dG*d[5mC]*d[5mC]*kT*k[5mC]*k[5mC]) [compound 800771],46
4,800776 (antisense kG*kA*kG*dG*d[5mC]*dA*d[5mC]*dG*d[5mC]*dG*dG*dT*dG*k[5mC]*kG*k[5mC]) [compound 800776],36
5,800786 (antisense kG*k[5mC]*kA*d[5mC]*d[5mC]*dA*dG*dT*dG*dT*dG*dA*d[5mC]*k[5mC]*kG*kA) [compound 800786],0
6,800787 (antisense k[5mC]*kA*kG*dT*dA*dG*dA*dG*d[5mC]*d[5mC]*dT*d[5mC]*d[5mC]*k[5mC]*k[5mC]*kA) [compound 800787],38
7,800793 (antisense kT*kG*kA*d[5mC]*dT*d[5mC]*dT*dT*dG*dT*dT*dG*dT*k[5mC]*k[5mC]*kG) [compound 800793],53
8,800795 (antisense kT*kA*kA*d[5mC]*dT*dG*d[5mC]*dT*dG*d[5mC]*dG*dG*dT*kT*kG*kT) [compound 800795],12
9,800798 (antisense k[5mC]*k[5mC]*kT*dG*dG*dA*dG*dT*d[5mC]*d[5mC]*dG*dG*dG*kT*kT*kG) [compound 800798],36
10,800837 (antisense kA*kA*kA*d[5mC]*d[5mC]*dT*dT*dT*dG*dT*dA*dG*dT*kT*kA*kG) [compound 800837],41
11,800843 (antisense kT*k[5mC]*kG*dG*d[5mC]*d[5mC]*dA*d[5mC]*dA*d[5mC]*dA*d[5mC]*d[5mC]*kT*k[5mC]*kA) [compound 800843],32
12,800858 (antisense kA*kG*k[5mC]*d[5mC]*d[5mC]*dA*dA*d[5mC]*dT*dG*dT*dT*dT*kG*kT*k[5mC]) [compound 800858],40
13,800861 (antisense k[5mC]*k[5mC]*kA*dG*dT*dT*dG*dG*dT*dT*dT*dG*dA*kG*kA*kA) [compound 800861],32
14,800883 (antisense kA*k[5mC]*k[5mC]*dA*dT*dT*dT*dA*dT*d[5mC]*dT*dG*dG*kT*kG*kT) [compound 800883],50
15,800998 (antisense k[5mC]*k[5mC]*k[5mC]*dG*d[5mC]*dT*d[5mC]*dT*d[5mC]*dA*dG*d[5mC]*d[5mC]*kA*kG*kG) [compound 800998],39
16,800999 (antisense k[5mC]*kA*kT*dT*d[5mC]*dA*dT*dT*dA*dA*dG*d[5mC]*d[5mC]*k[5mC]*kG*k[5mC]) [compound 800999],54
17,801003 (antisense kG*kA*kA*dT*d[5mC]*dA*dA*dG*d[5mC]*d[5mC]*d[5mC]*dT*dG*kG*k[5mC]*kT) [compound 801003],38
18,801128 (antisense kA*kG*kT*dA*dT*d[5mC]*d[5mC]*dA*dT*d[5mC]*dA*dA*d[5mC]*kT*kG*k[5mC]) [compound 801128],48
19,801132 (antisense kG*kG*kT*dG*dA*d[5mC]*dT*d[5mC]*dA*dT*d[5mC]*dA*dG*kG*k[5mC]*kA) [compound 801132],55
20,801138 (antisense kG*kT*kT*dA*dG*dG*dA*d[5mC]*d[5mC]*dT*dG*dG*dG*kA*kA*k[5mC]) [compound 801138],6
21,801145 (antisense kA*k[5mC]*kG*d[5mC]*dT*dG*dT*dG*dG*dT*dT*dT*dG*kT*kG*kG) [compound 801145],0
22,829715 (antisense kT*k[5mC]*kT*d[5mC]*d[5mC]*d[5mC]*dG*dG*dA*dG*dG*d[5mC]*d[5mC]*kG*kG*kG) [compound 829715],40
23,829716 (antisense kG*kT*k[5mC]*dT*d[5mC]*d[5mC]*d[5mC]*dG*dG*dA*dG*dG*d[5mC]*k[5mC]*kG*kG) [compound 829716],10
24,829717 (antisense kA*kG*kT*d[5mC]*dT*d[5mC]*d[5mC]*d[5mC]*dG*dG*dA*dG*dG*k[5mC]*k[5mC]*kG) [compound 829717],28

# From patent publication US10517889B2, “Modulators of SMAD7 expression” (Ionis Pharmaceuticals, Inc., priority 2017, dated 2019)
